In PMC6406907, “A H2AX–CARP-1 Interaction Regulates Apoptosis Signaling Following DNA Damage” (Cancers, 2019):
No end group written: not given here. HA = not defined here

Key:
HeLa cells = experiment: MTT cell viability/growth inhibition, HeLa; type: cell-based, human; settings: for cell viability: 10 μM, HeLa, mean of three independent experiments; for growth inhibition of EGFP-CARP-1 / EGFP-H2AX (1–35)-expressing cells: HeLa sublines vs EGFP-expressing counterparts
Protocol: Routine maintenance and culture of MDA-MB-468 (lacking estrogen receptor; ER and having mutant p53) human triple-negative breast cancer (TNBC) cells, human cervical cancer HeLa, human kidney cancer UOK 262, non-small-cell lung cancer H1975, and HCC827 cells was carried out essentially as described previously. Generation and characterization of MDA-MB-468 cells expressing reduced CARP-1 was described previously. The stable sublines were generated by transfecting the MDA-MB-468 and Hela cells with the pcDNA3 vector, pcDNA3-CARP-1 wild-type (WT)-myc-His clone 6.1.2, pcDNA3-CARP-1(Δ600–650)-myc-His, pcDNA3-EGFP, pcDNA3-EGFP-H2AX (1–35), or pcDNA3-EGFP-CARP-1 (636–650) plasmids, followed by selection in the presence of 800 μg/mL neomycin using described methods. The cell lysates from wild-type, untransfected cells, neomycin-resistant pools, or individual sublines were then subjected to MTT-based viability, confocal, immunoprecipitation (IP), and Western blot (WB) analyses as below.
The cell growth inhibition was assessed using an MTT assay following the established protocols described by us previously.
Here, we utilized human TNBC MDA-MB-468 and human cervical cancer HeLa cells to conduct an MTT-based dose-response analysis using Adriamycin and CFM compounds. […] Since Adriamycin, CFM-4, and CFM-4.16 have molecular masses of 543.3, 404.9, and 440.3, respectively, we chose to use an equimolar dose of each compound in the MTT assays. […] Prior reports established that phosphorylation of H2AX at serine 139 (γ-H2AX) is involved in DNA damage repair and apoptotic signaling by ATM/ATR and JNKs, respectively. Next, the MDA-MB-468, HeLa, and the kidney cancer UOK 262 cells were treated with a 10 μM dose of the CFM-4.16 or Adriamycin for various time periods. The cell lysates from the control, untreated, and treated cells were analyzed by WB for expression of CARP-1, phospho-JNK1/2, phospho-H2AX, and poly ADP ribose polymerase (PARP) proteins. […] The H2AX activation is also indicative of DNA damage and involves pro-apoptotic JNKs. Our data in Figure 1C and Figure S1B,C (Supplementary Materials) also show activation of JNKs; however, a robust JNK activation is co-incident with H2AX phosphorylation following treatments with Adriamycin or CFM-4.16.
Figure 8 Ectopic expression of TAT-CARP-1 (636–650) peptide results in enhanced viabilities of Adriamycin-treated cells. MDA-MB-468 (A) or HeLa (B) cells were pre-incubated with 300 μg/mL indicated peptides for 72 h, followed by treatments with the noted dose and time of Adriamycin. Determination of viable/live cells was carried out using an MTT assay as described in Section 2. The bar charts in panels A and B represent means of three and two independent experiments, respectively; bars, SE. (C) Indicated cells were either pre-incubated with 6 μg/mL indicated peptides for 72 h or not (Control), followed by treatments with Adriamycin as noted. Cells were then processed for immunofluorescence staining for TAT-CARP-1 peptide (red), γH2AX (green), and DAPI (blue) as detailed in Section 2 and Figure S3 (Supplementary Materials). Insets in C show enlarged areas of respective photomicrographs to indicate presence of TAT-CARP-1 peptide and γH2AX in respective columns. The insets in the top and middle rows of the merge column show co-localization of TAT-CARP-1 peptide, and γH2AX (magnification: 250×).
Figure S7. Disruption of H2AX interaction with CARP-1 results in enhanced viabilities of CFM-4, CFM-4.16, or Adriamycin-treated cells in part due to reduced γH2AX and apoptosis. (A,B,C) Indicated HeLa cell lines were treated with DMSO (Control), noted dose and time of Adriamycin, CFM-4, or CFM-4.16 compounds. Determination of viable/live cells was carried out by MTT assay as in methods. The columns in bar charts in panels A, B, C represent means of three independent […]
experiments; bars, SE. […]

[1] = test system: CARP-1, phospho-JNK1/2, phospho-H2AX, PARP; experiment: Western blot of CARP-1, phospho-JNK1/2, γH2AX, cleaved PARP in MDA-MB-468; type: cell-based, human; settings: for CARP-1 and γH2AX increase after knock-down of CARP-1: MDA-MB-468, CARP-1 knock-down; for JNK1/2 and H2AX activation: cells overexpressing myc-His-tagged CARP-1, WB

Row | Molecule | cell viability (HeLa cells) | growth inhibition of CARP-1 (Δ600–650)-expressing cells (HeLa cells; HeLa CARP-1 (Δ600–650) vs WT CARP-1-expressing counterparts, mean of three experiments) | growth inhibition of EGFP-CARP-1 / EGFP-H2AX (1–35)-expressing cells (HeLa cells; mean of three experiments) | CARP-1 and γH2AX increase after knock-down of CARP-1 [1] | levels of CARP-1 ([1]; MDA-MB-468, single agent (JNK-IN-8 at 5 μM), WB) | JNK1/2 and H2AX activation [1] | viability of Adriamycin-treated cells (HeLa cells; HeLa pre-incubated with 300 μg/mL peptide, 72 h, then Adriamycin, vs EGFP, mean of two experiments)
1 | COc1cccc2c1C(=O)c1c(O)c3c(c(O)c1C2=O)C[C@@](O)(C(=O)CO)C[C@@H]3O[C@H]1C[C@H](N)[C@H](O)[C@H](C)O1 [Adriamycin, doxorubicin, reference compound] | inhibited viabilities of both the cell lines in a time-dependent manner | resistant to inhibition by CFM-4 or ADR | resistant to inhibition by CFM-4.16 or ADR | abrogated CARP-1 and γH2AX increase | elevated levels of CARP-1 | time-dependent stimulation of JNK1/2 and H2AX activation | 
2 | O=C1N(Cc2ccccc2Cl)c2ccccc2C12NN=C(c1cccc(Cl)c1)S2 (stereo not shown) [CFM-4.16] | inhibited viabilities of both the cell lines in a time-dependent manner |  | resistant to inhibition by CFM-4.16 or ADR | abrogated CARP-1 and γH2AX increase |  | time-dependent stimulation of JNK1/2 and H2AX activation | 
3 | EGFP-CARP-1 (636–650): EGFP-tagged fusion protein stably expressed in MDA-MB-468 and HeLa sublines (PKTMKVNDLRKELES; also: EGFP fusion kept, end not given here) |  |  | resistant to inhibition by CFM-4.16 or ADR |  |  |  | 
4 | EGFP-H2AX (1–35): EGFP-tagged fusion protein stably expressed in MDA-MB-468 and HeLa sublines (MSGRGKTGGKARAKAKSRSSRAGLQFPVGRVHRLL; also: EGFP fusion, end not given here; UniProt P16104 1-35, looked up, fragment) |  |  | resistant to inhibition by CFM-4.16 or ADR |  |  |  | 
5 | His-TAT-HA-CARP-1 (636–650): His-TAT-HA-tagged CARP-1 (636–650) peptide, >95% purity, commercially synthesized ({His-TAT-HA}-PKTMKVNDLRKELES; reading uncertain; UniProt Q8IX12 636-650, looked up, fragment) |  |  |  |  |  |  | moderate, statistically significant increase in viabilities
